Where “and” joins values, the source holds several entries; their conditions need not be identical. Equal values may be shown once. Inconclusive results and toxic doses are left out.
Tested on: BDF1 mice, P388 leukemia ip, median survival T/C
Experiment: NCI In Vivo Anticancer Drug Screen. Data for tumor model P388 Leukemia (intraperitoneal) in B6D2F1 (BDF1) mice
Conditions: endpoint: median survival time, higher = longer survival
Outline: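 In tumour-bearing mice, survival after compound treatment is set against the vehicle group and given as a quotient.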

[1] = dose: 25.0 mg/kg/injection, schedule: Q04DX003 (ip), vehicle: saline with Tween-80
[2] = dose: 25.0 mg/kg/injection, schedule: Q01DX009 (ip), vehicle: saline with Tween-80
[3] = dose: 100.0 mg/kg/injection, schedule: Q01DX009 (ip), vehicle: saline with Tween-80
[4] = dose: 100.0 mg/kg/injection, schedule: Q04DX003 (ip), vehicle: saline with Tween-80
[5] = dose: 200.0 mg/kg/injection, schedule: Q04DX003 (ip), vehicle: saline with Tween-80
[6] = dose: 400.0 mg/kg/injection, schedule: Q04DX003 (ip), vehicle: saline with Tween-80

CC1=CC(=O)NP(=O)(Oc2ccc3ccccc3c2)N1 (stereo not given)
T/C (dose: 25.0 mg/kg/injection, schedule: Q04DX003 (ip), vehicle: saline + alcohol): 106 % of control
T/C (dose: 50.0 mg/kg/injection, schedule: Q04DX003 (ip), vehicle: saline + alcohol): 98 % of control
T/C (dose: 100.0 mg/kg/injection, schedule: Q04DX003 (ip), vehicle: saline + alcohol): 100 % of control
T/C (dose: 200.0 mg/kg/injection, schedule: Q04DX003 (ip), vehicle: saline + alcohol): 94 % of control
T/C (dose: 400.0 mg/kg/injection, schedule: Q04DX003 (ip), vehicle: saline + alcohol): 95 % of control

CC1CN(Cc2ccc([N+](=O)[O-])cc2)CC(C)N1N (stereo not given)
T/C (dose: 3.12 mg/kg/injection, schedule: Q04DX003 (ip), vehicle: saline with Tween-80): 96 % of control
T/C (dose: 6.25 mg/kg/injection, schedule: Q04DX003 (ip), vehicle: saline with Tween-80): 116 % of control
T/C (dose: 12.5 mg/kg/injection, schedule: Q04DX003 (ip), vehicle: saline with Tween-80): 107 % of control
T/C [1]: 107 % of control

Cc1ccc(N=NNc2ccc(C)cc2)cc1
T/C (dose: 100.0 mg/kg/injection, schedule: Q01DX001 (ip), vehicle: Klucel (hydroxypropylcellulose) (HPC)): 104 % of control
T/C (dose: 200.0 mg/kg/injection, schedule: Q01DX001 (ip), vehicle: Klucel (hydroxypropylcellulose) (HPC)): 104 % of control
T/C (dose: 400.0 mg/kg/injection, schedule: Q01DX001 (ip), vehicle: Klucel (hydroxypropylcellulose) (HPC)): 112 % of control

CN1CCN=C1c1ccc(NC(=O)c2ccc(C(=O)Nc3ccc(C4=NCCN4C)cc3)cc2)cc1
T/C (dose: 3.13 mg/kg/injection, schedule: Q04DX003 (ip), vehicle: saline): 100 % of control
T/C (dose: 4.0 mg/kg/injection, schedule: Q01DX009 (ip), vehicle: saline): 213 % of control
T/C (dose: 6.0 mg/kg/injection, schedule: Q01DX009 (ip), vehicle: saline): 240 % of control
T/C (dose: 6.25 mg/kg/injection, schedule: Q04DX003 (ip), vehicle: saline): 95 % of control
T/C (dose: 9.0 mg/kg/injection, schedule: Q01DX009 (ip), vehicle: saline): 245 % of control

C1=C(c2ccccc2)C(c2ccccc2)C(c2ccccc2)C/C1=N/OCCN1CCCC1 (stereo not given)
T/C (dose: 6.0 mg/kg/injection, schedule: Q01DX009 (ip), vehicle: saline with Tween-80): 108 % of control
T/C (dose: 6.0 mg/kg/injection, schedule: Q04DX003 (ip), vehicle: saline with Tween-80): 118 % of control
T/C (dose: 8.0 mg/kg/injection, schedule: Q01DX009 (ip), vehicle: saline with Tween-80): 100 % of control
T/C (dose: 12.0 mg/kg/injection, schedule: Q01DX009 (ip), vehicle: saline with Tween-80): 115 % of control
T/C (dose: 18.0 mg/kg/injection, schedule: Q01DX009 (ip), vehicle: saline with Tween-80): 107 % of control
T/C [1]: 100 % of control

O=C1NC(C2CCC3CN32)C(=O)NC1C1CCC2CN21 (stereo not given)
T/C (dose: 0.05 mg/kg/injection, schedule: Q01DX009 (ip), vehicle: saline): 91 % of control and 118 % of control
T/C (dose: 0.1 mg/kg/injection, schedule: Q01DX009 (ip), vehicle: saline): 96 % of control
T/C (dose: 0.2 mg/kg/injection, schedule: Q01DX009 (ip), vehicle: saline): 107 % of control
T/C (dose: 0.8 mg/kg/injection, schedule: Q01DX009 (ip), vehicle: saline): 164 % of control and 173 % of control

COc1cc2cc[n+]3c(C)c4ccc(OC)c(OC)c4cc3c2cc1OC (tested in a mixture with another compound)
T/C (dose: 2.0 mg/kg/injection, schedule: Q01DX009 (ip), vehicle: saline): 122 % of control
T/C (dose: 5.0 mg/kg/injection, schedule: Q01DX009 (ip), vehicle: saline): 117 % of control
T/C (dose: 20.0 mg/kg/injection, schedule: Q01DX009 (ip), vehicle: saline): 150 % of control and 192 % of control
T/C (dose: 40.0 mg/kg/injection, schedule: Q01DX009 (ip), vehicle: saline): 168 % of control and 185 % of control

CCN1CC1
T/C (dose: 3.12 mg/kg/injection, schedule: Q01DX001 (ip), vehicle: Klucel (hydroxypropylcellulose) (HPC)): 113 % of control
T/C (dose: 6.25 mg/kg/injection, schedule: Q01DX001 (ip), vehicle: Klucel (hydroxypropylcellulose) (HPC)): 118 % of control
T/C (dose: 6.25 mg/kg/injection, schedule: Q01DX009 (ip), vehicle: Klucel (hydroxypropylcellulose) (HPC)): 90 % of control
T/C (dose: 12.5 mg/kg/injection, schedule: Q01DX001 (ip), vehicle: Klucel (hydroxypropylcellulose) (HPC)): 86 % of control
T/C (dose: 12.5 mg/kg/injection, schedule: Q01DX009 (ip), vehicle: Klucel (hydroxypropylcellulose) (HPC)): 86 % of control

CC[C@]1(O)CC(OC2CC(N(C)C)C(O)C(C)O2)c2c(cc3c(c2O)C(=O)c2c(O)cccc2C3=O)[C@@H]1C(=O)OC (stereo not given in full)
T/C (dose: 1.25 mg/kg/injection, schedule: Q01DX001 (ip), vehicle: saline): 104 % of control and 110 % of control
T/C (dose: 2.5 mg/kg/injection, schedule: Q01DX001 (ip), vehicle: saline): 100 % of control and 109 % of control
T/C (dose: 5.0 mg/kg/injection, schedule: Q01DX001 (ip), vehicle: saline): 100 % of control
T/C (dose: 10.0 mg/kg/injection, schedule: Q01DX001 (ip), vehicle: saline): 100 % of control

CSC(=S)N/N=C(\C)C1CCCC[N-]1.[I][Zn][I] (stereo not given)
T/C (dose: 12.5 mg/kg/injection, schedule: Q01DX009 (ip), vehicle: saline with Tween-80): 109 % of control and 110 % of control and 115 % of control
T/C [2]: 109 % of control (2×) and 117 % of control
T/C [3]: 118 % of control

CCCCCCCCCCCCOc1ccc(C)cc1
T/C [4]: 109 % of control
T/C [5]: 100 % of control
T/C [6]: 100 % of control

COC1/C=C/O[C@@]2(C)Oc3c(C)c(O)c4c(O)c(cc(O)c4c3C2=O)NC(=O)/C(C)=C\C=C\[C@H](C)C(O)[C@@H](C)[C@@H](O)[C@@H](C)[C@H](OC(C)=O)[C@@H]1C (stereo not given in full)
T/C (dose: 100.0 mg/kg/injection, schedule: Q01DX009 (ip), vehicle: saline): 123 % of control
T/C (dose: 200.0 mg/kg/injection, schedule: Q01DX009 (ip), vehicle: saline): 114 % of control
T/C (dose: 400.0 mg/kg/injection, schedule: Q01DX009 (ip), vehicle: saline): 119 % of control

COC(=O)CCCC1=NC2=CC=CC3=NC(C)=NC(=N1)N23
T/C [2]: 110 % of control
T/C [3]: 99 % of control

COC1CC(N=[N+]=[N-])C(OS(C)(=O)=O)C(C)O1 (stereo not given)
T/C [4]: 101 % of control
T/C [5]: 102 % of control
T/C [6]: 101 % of control

Nc1cc(=O)n(Cc2ccco2)c(=S)[nH]1
T/C (dose: 50.0 mg/kg/injection, schedule: Q01DX005 (ip), vehicle: saline with Tween-80): 93 % of control
T/C (dose: 100.0 mg/kg/injection, schedule: Q01DX005 (ip), vehicle: saline with Tween-80): 102 % of control
T/C (dose: 200.0 mg/kg/injection, schedule: Q01DX005 (ip), vehicle: saline with Tween-80): 100 % of control

CC1C=NNC1=O (stereo not given)
T/C (dose: 100.0 mg/kg/injection, schedule: Q01DX001 (ip), vehicle: saline with Tween-80): 95 % of control and 118 % of control
T/C (dose: 175.0 mg/kg/injection, schedule: Q01DX001 (ip), vehicle: saline with Tween-80): 100 % of control
T/C (dose: 176.0 mg/kg/injection, schedule: Q01DX009 (ip), vehicle: Klucel (hydroxypropylcellulose) (HPC)): 120 % of control
T/C (dose: 200.0 mg/kg/injection, schedule: Q01DX001 (ip), vehicle: saline with Tween-80): 104 % of control
T/C (dose: 265.0 mg/kg/injection, schedule: Q01DX001 (ip), vehicle: saline with Tween-80): 100 % of control
T/C (dose: 400.0 mg/kg/injection, schedule: Q01DX001 (ip), vehicle: saline with Tween-80): 100 % of control
T/C (dose: 600.0 mg/kg/injection, schedule: Q01DX001 (ip), vehicle: saline with Tween-80): 109 % of control

CCSC(=O)N1c2ccc(C)cc2C=CC1C#N (stereo not given)
T/C (dose: 62.5 mg/kg/injection, schedule: Q01DX001 (ip), vehicle: saline with Tween-80): 113 % of control
T/C (dose: 125.0 mg/kg/injection, schedule: Q01DX001 (ip), vehicle: saline with Tween-80): 104 % of control
T/C (dose: 250.0 mg/kg/injection, schedule: Q01DX001 (ip), vehicle: saline with Tween-80): 122 % of control

Cc1cc(=O)[nH]c(N/N=C/c2ccco2)n1
T/C (dose: 12.5 mg/kg/injection, schedule: Q01DX009 (ip), vehicle: gum acacia): 108 % of control
T/C (dose: 25.0 mg/kg/injection, schedule: Q01DX009 (ip), vehicle: gum acacia): 104 % of control
T/C (dose: 50.0 mg/kg/injection, schedule: Q01DX009 (ip), vehicle: gum acacia): 108 % of control
T/C (dose: 100.0 mg/kg/injection, schedule: Q04DX003 (ip), vehicle: gum acacia): 109 % of control
T/C (dose: 200.0 mg/kg/injection, schedule: Q04DX003 (ip), vehicle: gum acacia): 118 % of control

NCCCCC1NC(=O)C(CCCCN)NC1=O (stereo not given)
T/C (dose: 50.0 mg/kg/injection, schedule: Q01DX005 (ip), vehicle: saline): 105 % of control
T/C (dose: 100.0 mg/kg/injection, schedule: Q01DX005 (ip), vehicle: saline): 105 % of control
T/C (dose: 200.0 mg/kg/injection, schedule: Q01DX005 (ip), vehicle: saline): 95 % of control

From PubChem BioAssay AID328 (DTP/NCI, 2004)
